From US5300304A, “Pulsatile once-a-day delivery systems for minocycline” (priority 1992, dated 1994)
Read-outs that look alike come from different tables or passages of the source.

Experiments:
[1] = taken without food; cited from earlier work
[2] = system: gram-negative and gram-positive bacteria; conditions: PDR 43rd Ed.; cited from earlier work

For CN(C)c1ccc(O)c2c1C[C@H]1C[C@H]3[C@H](N(C)C)C(=O)C(C(N)=O)=C(O)[C@@]3(O)C(=O)C1=C2O [minocycline, 7-dimethylamino-6-deoxy-6-demethyltetracycline], the “bioavailability of minocycline in the gastrointestinal tract” value (from here on “bioavailability of minocycline”) (duodenum, based upon 100 percent absorption in the stomach) was 106%, the “absorption in the lower gastrointestinal tract” value (human patients, intubation) was “reduced absorption” and the “bioavailability of minocycline” value (ileum, based upon 100 percent absorption in the stomach) was 58%. For the same molecule, the “bioavailability of minocycline” value (jejunum, based upon 100 percent absorption in the stomach) was 80%, the “bioavailability of minocycline” value (stomach, reference (100 percent absorption in the stomach)) was 100% and the half life [1] was “approximately 10 hours”. The “organisms susceptible to minocycline therapy” value [2] was “wide range of gram-negative and gram-positive bacteria”.
